In BindingDB's records for PubMed 6292197 (Kyoto University, 1982):

What follows are molecules tested against T1, Prostaglandin D2 receptor (Rattus norvegicus, UniProt Q9R261).
T1 sequence (Q9R261 whole entry): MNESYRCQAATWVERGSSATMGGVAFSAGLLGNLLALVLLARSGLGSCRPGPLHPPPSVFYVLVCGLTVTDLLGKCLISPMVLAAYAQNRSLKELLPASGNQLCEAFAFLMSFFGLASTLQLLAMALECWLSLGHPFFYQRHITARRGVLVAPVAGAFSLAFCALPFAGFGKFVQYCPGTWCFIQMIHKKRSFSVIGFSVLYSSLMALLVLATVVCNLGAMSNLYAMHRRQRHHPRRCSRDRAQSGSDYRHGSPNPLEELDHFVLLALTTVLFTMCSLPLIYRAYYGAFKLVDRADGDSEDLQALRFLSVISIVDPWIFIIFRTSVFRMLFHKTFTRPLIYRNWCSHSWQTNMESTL

Row | SMILES | Ki [nM]
1 | CCCCC[C@@H](O)/C=C/[C@H]1[C@H](O)CC(=O)[C@@H]1CCCCCCC(=O)O | 3760
2 | CCCCC[C@H](O)/C=C/[C@@H]1[C@@H](CC(=O)CCCCC(=O)O)[C@@H](O)C[C@H]1O [6-KETO-PROSTAGLANDIN F1ALPHA] | > 10000
3 | CCCCC[C@H](O)/C=C/C1[C@H](O)C[C@H](O)[C@@H]1C/C=C\CCCC(=O)O (stereo partly drawn) [(Z)-7-[(1R,3R,5S)-3,5-Dihydroxy-2-((E)-(S)-3-hydroxy-oct-1-enyl)-cyclopentyl]-hept-5-enoic acid] | 693
4 | CCCCCC(O)C=CC1C(=O)CC(O)C1CC=CCCCC(=O)OC (stereo unspecified) [CAS_114676] | 27
5 | CCCCC[C@H](O)C=C[C@H]1C=CC(=O)[C@@H]1C/C=C\CCCC(=O)O [(Z)-7-[(1R,5S)-2-oxidanylidene-5-[(E,3S)-3-oxidanyloct-1-enyl]cyclopent-3-en-1-yl]hept-5-enoic acid] | > 10000
6 | CCCCCC(O)CC=C1C(=O)C=CC1CC=CCCCC(=O)O (stereo unspecified) [CAS_41598-07-6] | 19
7 | CCCCC[C@H](O)/C=C/[C@H]1[C@H](O)CC(=O)[C@@H]1C/C=C\CCCC(=O)O [DINOPROSTONE] | 2950

More lines, now with the values ahead:

Row | Ki [nM] | SMILES
8 | > 10000 | CCCCCC(O)C=CC1=C(CC=CCCCC(=O)O)C(=O)CC1 (stereo unspecified) [NSC_5280881]
9 | 523 | CCCCCC(O)C=CC1C(=O)CC(O)C1CCCCCCC(=O)O (stereo unspecified) [NSC_205449]
10 | 4200 | CCCCC[C@H](O)/C=C/[C@H]1OC(O)C[C@H](O)[C@@H]1C/C=C\CCCC(=O)O (stereo partly specified) [THROMBOXANE B2]
11 | 3540 | CCCCCC(O)C=CC1C(O)CC2OC(=CCCCC(=O)O)CC21 (stereo unspecified) [NSC_5282411]
